Laboratory results: US11780839B2, “Compounds for treating Huntington's disease” (PTC THERAPEUTICS, INC., priority 2018, dated 2023)

Tested on: Endogenous Huntingtin Protein
Test: Endogenous Huntingtin Protein Assay (ELISA-based Meso Scale Discovery electrochemiluminescence)
Format: cell-based
Details: MSD electrochemiluminescence, Table 1
In short: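 Huntingtin was captured overnight at 4 °C on plates coated with 1 μg/mL MW1 (polyQ-expanded) or MAB2166 antibody and BSA-blocked. Detection used a rabbit monoclonal and then a SULFO-TAG goat anti-rabbit antibody (0.25 μg/mL, 1 h each, room temperature). Signal was read by electrochemiluminescence.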

Row | Molecule | IC50
1 | CN(c1ncc(-c2ccc(-c3ccncc3)cc2O)nn1)C1CC(C)(C)NC(C)(C)C1 [Cpd 8, 2-{3-[methyl(2,2,6,6-tetramethylpiperidin-4-yl)amino]-1,2,4-triazin-6-yl}-5-(pyridin-4-yl)phenol] | ≤ 100 nM
2 | CN(c1ncc(-c2ccc(-c3ccn4nncc4c3)cc2O)nn1)C1CC(C)(C)NC(C)(C)C1 [Cpd 152, 2-{3-[methyl(2,2,6,6-tetramethylpiperidin-4-yl)amino]-1,2,4-triazin-6-yl}-5-([1,2,3]triazolo[1,5-a]pyridin-5-yl)phenol] | ≤ 100 nM
3 | CC1(C)CC(Oc2cnc(-c3ccc(-c4cn[nH]c4)cc3O)nn2)CC(C)(C)N1 [Cpd 419, 5-(1H-pyrazol-4-yl)-2-{6-[(2,2,6,6-tetramethylpiperidin-4-yl)oxy]-1,2,4-triazin-3-yl}phenol] | ≤ 100 nM
4 | CC1(C)CC(Nc2ncc(-c3ccc(-n4nccn4)cc3O)nn2)C(F)C(C)(C)N1 (stereo not drawn) [Cpd 324, 2-{3-[(3-fluoro-2,2,6,6-tetramethylpiperidin-4-yl)amino]-1,2,4-triazin-6-yl}-5-(2H-1,2,3-triazol-2-yl)phenol] | ≤ 100 nM
5 | 5-[1-(^2H3)methyl-1H-pyrazol-4-yl]-2-{6-[methyl(2,2,6,6-tetramethylpiperidin-4-yl)amino]-1,2,4-triazin-3-yl}phenol [Cpd 192] | 100 to 500 nM
6 | Cc1nnc(-c2ccc(-c3cnc(N(C)C4CC(C)(C)NC(C)(C)C4)nn3)c(O)c2)o1 [Cpd 81, 5-(5-methyl-1,3,4-oxadiazol-2-yl)-2-{3-[methyl(2,2,6,6-tetramethylpiperidin-4-yl)amino]-1,2,4-triazin-6-yl}phenol] | ≤ 100 nM
7 | CN(c1ncc(-c2ccc(-c3cn[nH]c3)cc2O)nn1)C1C[C@H]2CCC[C@@H](C1)N2C (stereo partly drawn) [Cpd 87, 2-(3-{methyl[(1R,3s,5S)-9-methyl-9-azabicyclo[3.3.1]nonan-3-yl]amino}-1,2,4-triazin-6-yl)-5-(1H-pyrazol-4-yl)phenol] | ≤ 100 nM

Now from value to molecule:

Row | IC50 | Molecule
8 | ≤ 100 nM | CC1(C)CC(Nc2cnc(-c3ccc(-c4cn[nH]c4)cc3O)nn2)CC(C)(C)N1 [Cpd 396, 5-(1H-pyrazol-4-yl)-2-{6-[(2,2,6,6-tetramethylpiperidin-4-yl)amino]-1,2,4-triazin-3-yl}phenol]
9 | 100 to 500 nM | CC1(NC2CCN(c3ncc(-c4ccc(-c5cn[nH]c5)cc4O)nn3)C2)COC1 (stereo not drawn) [Cpd 325]
10 | ≤ 100 nM | Cn1cc(-c2ccc(-c3cnc(N4CC[C@@H](NC5CCC5)C4)nn3)c(O)c2)cn1 [Cpd 406, 2-{3-[(3R)-3-(cyclobutylamino)pyrrolidin-1-yl]-1,2,4-triazin-6-yl}-5-(1-methyl-1H-pyrazol-4-yl)phenol]
11 | > 500 nM | CN1CC[C@H](Oc2ncc(-c3ccc(-c4cn[nH]c4)cc3O)nn2)C1 [Cpd 309, 2-(3-{[(3S)-1-methylpyrrolidin-3-yl]oxy}-1,2,4-triazin-6-yl)-5-(1H-pyrazol-4-yl)phenol]
12 | ≤ 100 nM | CNC1CCN(c2ncc(-c3ccc(-c4cnn(C)n4)cc3O)nn2)C1 (stereo not drawn) [Cpd 295, 2-{3-[3-(methylamino)pyrrolidin-1-yl]-1,2,4-triazin-6-yl}-5-(2-methyl-2H-1,2,3-triazol-4-yl)phenol]
13 | 100 to 500 nM | N[C@@H]1CN(c2ncc(-c3ccc(-c4cn[nH]c4)cc3O)nn2)CC12CC2 [Cpd 115, 2-{3-[(7S)-7-amino-5-azaspiro[2.4]heptan-5-yl]-1,2,4-triazin-6-yl}-5-(1H-pyrazol-4-yl)phenol]
14 | 1000 to 3000 nM | CC(C)(C)NC1CCN(c2ncc(-c3ccc(-c4cn[nH]c4)cc3O)nn2)CC1 [Cpd 206, 2-{3-[4-(tert-butylamino)piperidin-l-yl]-1,2,4-triazin-6-yl}-5-(1H-pyrazol-4-yl)phenol]
15 | 100 to 500 nM | CCC1CC(Oc2ncc(-c3ccc(-c4cn[nH]c4)cc3O)nn2)CC(CC)N1 [Cpd 120, 2-{3-[(2R,4s,6S)-2,6-diethylpiperidin-4-yl]oxy}-1,2,4-triazin-6-yl)-5-(1H-pyrazol-4-yl)phenol]
